Common to all, as to assay: NCI-60 cell line screen, 48 h
For test [1], the system named is HL-60(TB) leukemia.
Test [2] relates to HOP-92 NSCLC.
For test [3], the system named is A498 renal.
The test system of test [4] is SNB-75 CNS.
The test system of test [5] is RXF 393 renal.
For test [6], the system named is MDA-MB-435.
The subject of test [7] is OVCAR-5 ovarian.
The subject of test [8] is U251 CNS.
Test [9] deals with UO-31 renal.
Test [10] concerns SF-539 CNS.
Test [11] relates to SK-MEL-28 melanoma.
In test [12] the test system is PC-3 prostate.
Test [13] deals with MOLT-4 leukemia.
Test [14] relates to LOX IMVI melanoma.
In test [15] the test system is NCI-H522 lung.
Test [16] has as its system NCI-H226 lung.
The test system of test [17] is SNB-19 CNS.

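Cultured in 96-well plates, cells were exposed to test compound for 48 hours across five concentrations. TGI: concentration producing complete growth inhibition.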

Regarding `CC(=O)OCC1OC(n2c3c(c(-c4ccc(C)cc4)c(C#N)c2=S)C(=O)CC(C)(C)C3)C(OC(C)=O)C(OC(C)=O)C1OC(C)=O` (centres undefined), the TGI is more than 100 µM in test [1]; more than 100 µM in test [2]; more than 100 µM in [3]; 82.5 µM in [4]; 92.2 µM in test [5]; more than 100 µM in test [6]. Moreover, the TGI was more than 100 µM in [7]; more than 100 µM in [8]; more than 100 µM in test [9]; 67.2 µM in [10]; 66.3 µM in test [11]; 60 µM in test [12]. Further, the TGI in test [13] is more than 100 µM; in [14], 26.2 µM; in test [15] it was more than 100 µM; in test [16] it was 61.8 µM; in test [17], more than 100 µM.
As to `COc1ccc2c(c1)/C(=C/c1c(O)[nH]c(=S)[nH]c1=O)C=N2`, the TGI is more than 100 µM in test [1]; more than 100 µM in [2]; more than 100 µM in [3]; 49.9 µM in [4]; 96.9 µM in test [5]; more than 100 µM in test [6]. For the same compound, the TGI in test [7], in test [8], in [9], in test [10], in test [11] and in test [12] was more than 100 µM throughout. Besides, the TGI in test [13], in [14], in test [15], in test [16] and in [17] was more than 100 µM each time.
For the compound `O=C1c2ccccc2C(=O)N1/N=C1/SC(=Nc2ccccc2)C(=Nc2ccccc2)N1c1ccccc1`, the TGI in [1] was more than 100 µM; in test [2], more than 100 µM; in [3], more than 63.1 µM; in [4] it was more than 54.1 µM; in test [5], 14.3 µM; in test [6], more than 100 µM. The TGI is more than 100 µM in [7]; more than 100 µM in [8]; more than 100 µM in test [9]; more than 100 µM in test [10]; more than 69 µM in test [11]; more than 100 µM in [12]. Moreover, the TGI in [13], in test [14], in test [15], in [16] and in test [17] was more than 100 µM each time.
For the compound `COc1ccc(/C=C/C(=O)c2cc(OC)cc(OC)c2)cc1`, the TGI in [1] came out at 9.73 µM; in test [2], 60.4 µM; in test [3] it was 11.7 µM; in [4], 8.19 µM; in test [5], 8.6 µM; in [6], 3.45 µM. The TGI in [7] amounted to 18.1 µM; in test [8] it was 7.41 µM; in test [9], 12.4 µM; in test [10], 7.93 µM; in test [11], 27 µM; in [12], 20.7 µM. Besides, the TGI is more than 26.6 µM in test [13]; 15.4 µM in [14]; 6.29 µM in test [15]; 31.6 µM in test [16]; 7.3 µM in [17].
On to `CN1CCN(Cn2nc(COc3ccccc3Cl)n(/N=C/c3ccc(-c4ccc(Cl)cc4Cl)o3)c2=S)CC1`, for which the TGI in test [1] is 55.1 µM; in test [2], 40.6 µM; in test [3] it was 54.1 µM; in test [5], 32 µM; in test [6], 64.5 µM; in [7] it was more than 100 µM. Also, the TGI in test [8] is 34.6 µM; in test [9], more than 100 µM; in test [10], 62.6 µM; in [11], more than 100 µM; in [12], 53.6 µM; in [13] it was 62.1 µM. Further, the TGI in test [14] is more than 100 µM; in test [15], 56.1 µM; in test [16], more than 100 µM.
With `CCCc1nnc2sc(COc3ccc(OCc4nn5c(CCC)nnc5s4)c(Cl)c3)nn12`, the TGI in test [1] is 40.9 µM; in test [2] it was 80.6 µM; in test [3], 74.5 µM; in test [4] it was 73.7 µM; in test [5], more than 100 µM; in test [6] it was 59 µM. In addition, the TGI is more than 100 µM in [7]; more than 100 µM in [8]; 31.8 µM in test [9]; more than 100 µM in [10]; more than 100 µM in test [11]; more than 100 µM in test [12]. The TGI in [13], in [14], in test [15], in [16] and in test [17] was more than 100 µM throughout.
In the case of `CC1=C(O)C(=O)C=C2C1=CC=C1[C@@]2(C)CC[C@@]2(C)C3C[C@@H](C)C(=O)[C@@H](O)[C@]3(C)CC[C@]12C` (some centres undefined), the TGI in test [1] was 2.76 µM; in test [2] it was 3.87 µM; in test [3], 12.4 µM; in [4] it was 17.3 µM; in [5], 3.49 µM; in [6] it was 6.6 µM. Besides, the TGI in [7] turned out to be 9.29 µM; in [8] it was 2.88 µM; in test [9] it was 3.53 µM; in [10] it was 4.33 µM; in test [11], 4.17 µM; in test [12] it was 4.23 µM. For the same compound, the TGI in test [13] amounted to 3.21 µM; in test [14], 3.02 µM; in [15], 2.34 µM; in [16], 11.1 µM; in test [17] it was 9.23 µM.
With `CC(CN1NC12CCCC2)N1NC12CCCC2` (centres undefined), the TGI in test [1], in test [2], in test [3], in test [4], in [5] and in test [6] was more than 100 µM in each case. In addition, the TGI in test [7], in [8], in [9], in test [10], in test [11] and in test [12] was more than 100 µM in each case. Moreover, the TGI in test [13], in test [14], in [15], in test [16] and in test [17] was more than 100 µM each time.

The record behind these values is PubChem BioAssay (NCI).
